A value given as a limit tells only on which side of the number the result lay.

As usually defined, the IC50 is the point on the concentration scale where inhibition reaches its midpoint. Lower therefore signals greater potency.

This assay concerns YAP-TEAD interaction. Description: SK-HEP-1 reporter assay (8xTEAD responsive elements driving NanoLuc luciferase). Particulars: Homo sapiens, SK-HEP1, SK-HEP-1 reporter assay. It is filed as cell-based. In outline:
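SK-HEP-1 cells stably carrying an 8×TEAD-element NanoLuc reporter were treated in duplicate with 10-point dilutions from a top final 30 μM (0.3% DMSO). After 24 h at 37 °C, luciferase activity was read by luminescence with NanoGlo lysis/substrate reagent, and IC50 values were derived.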
A general note: A reporter such as luciferase makes a cellular process visible.
In turn, `Cn1cc2c3cc(C(=O)NCc4cncn4CCF)ccc3n(-c3ccc(C(F)(F)F)cc3)c2n1` [Example B82, N-{[1-(2-fluoroethyl)-1H-imidazol-5-yl]methyl}-2-methyl-8-[4-(trifluoromethyl)phenyl]-2H,8H-pyrazolo[3,4-b]indole-5-carboxamide] gave a half-inhibitory concentration (IC50) of 100 to 10000 nM. The result for `COCC1(C)CCCN1C(=O)c1ccc2c(c1)c1cn(C)nc1n2-c1ccc(C(F)(F)F)cc1` (stereo not shown) [Example B89, 2-(methoxymethyl)-2-methyl-1-{2-methyl-8-[4-(trifluoromethyl)phenyl]-2H,8H-pyrazolo[3,4-b]indole-5-carbonyl}pyrrolidine] reads 100 to 10000 nM; that for `CC(CCn1cncn1)NC(=O)c1ccc2c(c1)c1cn(C)nc1n2-c1ccc(C(F)(F)F)cc1` (stereo not shown) [Example B90, 2-methyl-N-[4-(1H-1,2,4-triazol-1-yl)butan-2-yl]-8-[4-(trifluoromethyl)phenyl]-2H,8H-pyrazolo[3,4-b]indole-5-carboxamide], 10 to 100 nM. The result for `Cc1[nH]cnc1CNC(=O)c1ccc2c(c1)c1cn(C)nc1n2-c1ccc(C(F)(F)F)cc1` [Example B46, 2-methyl-N-[(5-methyl-1H-imidazol-4-yl)methyl]-8-[4-(trifluoromethyl)phenyl]-2H,8H-pyrazolo[3,4-b]indole-5-carboxamide] reads 100 to 10000 nM; that for `Cn1cc2c3cc(C(=O)N4CC(O)C5(CCOCC5)C4)ccc3n(-c3ccc(C(F)(F)F)cc3)c2n1` (stereo not shown) [Example B56, 2-(2-methyl-8-[4-(trifluoromethyl)phenyl]-2H,8H-pyrazolo[3,4-b]indole-5-carbonyl}-8-oxa-2-azaspiro[4.5]decan-4-ol], over 10000 nM; that for `Cc1oc(C2CC2)nc1CNC(=O)c1ccc2c(c1)c1cn(C)nc1n2-c1ccc(C(F)(F)F)cc1` [Example B85, N-[(2-cyclopropyl-5-methyl-1,3-oxazol-4-yl)methyl]-2-methyl-8-[4-(trifluoromethyl)phenyl]-2H,8H-pyrazolo[3,4-b]indole-5-carboxamide], 1 to 10 nM.

With `Cn1cc2c3cc(C(=O)N4CC(F)(F)CC4(C)CO)ccc3n(-c3ccc(C(F)(F)F)cc3)c2n1` (stereo not shown) [Example B35, (4,4-difluoro-2-methyl-1-{2-methyl-8-[4-(trifluoromethyl)phenyl]-2H,8H-pyrazolo[3,4-b]indole-5-carbonyl}pyrrolidin-2-yl)methanol], the IC50 is over 10000 nM. Then `Cc1nc(CNC(=O)c2ccc3c(c2)c2cn(C)nc2n3-c2ccc(C(F)(F)F)cc2)n[nH]1` [B144^], with 10 to 100 nM. The result for `Cn1cc2c3cc(C(=O)NC4(c5ccncc5F)CC4)ccc3n(-c3ccc(C(F)(F)F)cc3)c2n1` [B127^] reads 100 to 10000 nM. Then `CC(NC(=O)c1ccc2c(c1)c1cn(C)nc1n2-c1ccc(C(F)(F)F)cc1)c1cnn(C2CC2)c1` (stereo not shown) [B109^], with over 10000 nM; and `Cn1cc2c3cc(C(=O)NCCc4cc(O)no4)ccc3n(-c3ccc(C(F)(F)F)cc3)c2n1` [B113^], with 100 to 10000 nM; and `CC(NC(=O)c1ccc2c(c1)c1cn(C)nc1n2-c1ccc(C(F)(F)F)cc1)c1ccc[nH]1` (stereo not shown) [Example B8, 2-methyl-N-[1-(1H-pyrrol-2-yl)ethyl]-8-[4-(trifluoromethyl)phenyl]-2H,8H-pyrazolo[3,4-b]indole-5-carboxamide], with 100 to 10000 nM.

`Cn1cc2c3cc(C(=O)NCc4ccc(F)c(CO)c4)ccc3n(-c3ccc(C(F)(F)F)cc3)c2n1` [Example B19, N-{[4-fluoro-3-(hydroxymethyl)-phenyl]methyl}-2-methyl-8-[4-(trifluoromethyl)phenyl]-2H,8H-pyrazolo[3,4-b]indole-5-carboxamide]: the IC50 lay within 1 to 10 nM.

`Cn1cc2c3cc(C(=O)N4CCCC(OCC5CC5)C4)ccc3n(-c3ccc(C(F)(F)F)cc3)c2n1` (stereo not shown) [Example B62, 3-(cyclopropylmethoxy)-1-{2-methyl-8-[4-(trifluoromethyl)phenyl]-2H,8H-pyrazolo[3,4-b]indole-5-carbonyl}piperidine] registered an IC50 of over 10000 nM. On to `CCC(NC(=O)c1ccc2c(c1)c1cn(C)nc1n2-c1ccc(C(F)(F)F)cc1)c1c(C)noc1C` (stereo not shown) [Example B71, N-[1-(3,5-dimethyl-1,2-oxazol-4-yl)propyl]-2-methyl-8-[4-(trifluoromethyl)phenyl]-2H,8H-pyrazolo[3,4-b]indole-5-carboxamide], for which the IC50 is 10 to 100 nM. As for `Cn1cc2c3cc(C(=O)NCCc4cc(C5CC5)on4)ccc3n(-c3ccc(C(F)(F)F)cc3)c2n1` [Example B95, N-[2-(5-cyclopropyl-1,2-oxazol-3-yl)ethyl]-2-methyl-8-[4-(trifluoromethyl)phenyl]-2H,8H-pyrazolo[3,4-b]indole-5-carboxamide], the IC50 is 100 to 10000 nM. Turning to `CO[C@H]1C[C@@H](CCO)N(C(=O)c2ccc3c(c2)c2cn(C)nc2n3-c2ccc(C(F)(F)F)cc2)C1` (single isomer, unassigned) [Example B4], the IC50 was over 10000 nM. The result for `Cn1cc2c3cc(NC(=O)CCl)ccc3n(-c3ccc(C(F)(F)F)cc3)c2n1` [Example 23, 2-chloro-N-[2-methyl-8-[4-(trifluoromethyl)phenyl]pyrazolo[3,4-b]indol-5-yl]acetamide] reads over 10000 nM. Then `CCC(NC(=O)c1ccc2c(c1)c1cn(C)nc1n2-c1ccc(C(F)(F)F)cc1)c1ncc[nH]1` (stereo not shown) [Example B7, N-[1-(1H-imidazol-2-yl)propyl]-2-methyl-8-[4-(trifluoromethyl)phenyl]-2H,8H-pyrazolo[3,4-b]indole-5-carboxamide], with over 10000 nM; and `Cn1cc2c3cc(C(=O)NC(C4CC4)C4COCCO4)ccc3n(-c3ccc(C(F)(F)F)cc3)c2n1` (stereo not shown) [B115^], with 100 to 10000 nM; and `Cn1cc2c3cc(C(=O)NCC4(n5cncn5)CC4)ccc3n(-c3ccc(C(F)(F)F)cc3)c2n1` [B103^], with 100 to 10000 nM.

The compound `Cn1cc2c3cc(C(=O)NCC4CC45CCOC5)ccc3n(-c3ccc(C(F)(F)F)cc3)c2n1` (stereo not shown) [Example B75, 2-methyl-N-({5-oxaspiro[2.4]heptan-1-yl}methyl)-8-[4-(trifluoromethyl)phenyl]-2H,8H-pyrazolo[3,4-b]indole-5-carboxamide] yielded an IC50 of 100 to 10000 nM. Then `Cn1cc2c3cc(C(=O)NC(CF)c4cnnn4C)ccc3n(-c3ccc(C(F)(F)F)cc3)c2n1` (stereo not shown) [Example B91, N-[2-fluoro-1-(1-methyl-1H-1,2,3-triazol-5-yl)ethyl]-2-methyl-8-[4-(trifluoromethyl)phenyl]-2H,8H-pyrazolo[3,4-b]indole-5-carboxamide], with 10 to 100 nM; and `Cn1cc2c3cc(C(=O)NC(CO)c4ccccn4)ccc3n(-c3ccc(C(F)(F)F)cc3)c2n1` (racemic) [Example 29, N-[2-hydroxy-1-(pyridin-2-yl)ethyl]-2-methyl-8-[4-(trifluoromethyl)phenyl]-2H,8H-pyrazolo[3,4-b]indole-5-carboxamide], with 100 to 10000 nM; and `O=C(O)c1ccc2c(c1)c1cn(Cc3ccccc3)cc1n2-c1ccccc1` [Example 3, 2-Benzyl-4-phenyl-2H,4H-pyrrolo[3,4-b]indole-7-carboxylic acid], with 1 to 10 nM.

On to `CC(CNC(=O)c1ccc2c(c1)c1cn(C)nc1n2-c1ccc(C(F)(F)F)cc1)c1ccc(F)cn1` (stereo not shown) [Example B92, N-[2-(5-fluoropyridin-2-yl)propyl]-2-methyl-8-[4-(trifluoromethyl)phenyl]-2H,8H-pyrazolo[3,4-b]indole-5-carboxamide], for which the IC50 lay in the range of 100 to 10000 nM. The result for `CC(NC(=O)c1ccc2c(c1)c1cn(C)nc1n2-c1ccc(C(F)(F)F)cc1)c1cc[nH]n1` (stereo not shown) [Example B39, 2-methyl-N-[1-(lH-pyrazol-5-yl)ethyl]-8-[4-(trifluoromethyl)phenyl]-2H,8H-pyrazolo[3,4-b]indole-5-carboxamide] reads 10 to 100 nM; that for `CC(NC(=O)c1ccc2c(c1)c1cn(C)nc1n2-c1ccc(C(F)(F)F)cc1)c1nn(C)cc1O` (stereo not shown) [Example B14, N-[1-(4-hydroxy-1-methyl-1H-pyrazol-3-yl)ethyl]-2-methyl-8-[4-(trifluoromethyl)phenyl]-2H,8H-pyrazolo[3,4-b]indole-5-carboxamide], 100 to 10000 nM. Take `CCOC1CC(N(C)C(=O)c2ccc3c(c2)c2cn(C)nc2n3-c2ccc(C(F)(F)F)cc2)C1(C)C` (stereo not shown) [Example B99, N-(3-ethoxy-2,2-dimethylcyclobutyl)-N,2-dimethyl-8-[4-(trifluoromethyl)phenyl]-2H,8H-pyrazolo[3,4-b]indole-5-carboxamide]: the IC50 is over 10000 nM. Turning to `Cn1cc2c3cc(C(=O)NC45CC4COC5(C)C)ccc3n(-c3ccc(C(F)(F)F)cc3)c2n1` (stereo not shown) [Example B73, N-(2,2-dimethyl-3-oxabicyclo[3.1.0]hexan-1-yl}-2-methyl-8-[4-(trifluoromethyl)phenyl]-2H,8H-pyrazolo[3,4-b]indole-5-carboxamide], the IC50 lay within 100 to 10000 nM. Compound `Cn1cc2c3cc(C(=O)N[C@@H]4COC5(CCC5)[C@H]4O)ccc3n(-c3ccc(C(F)(F)F)cc3)c2n1` (relative stereo) [Example B23, N-[(7R,8S)-8-hydroxy-5-oxaspiro[3.4]octan-7-yl]-2-methyl-8-[4-(trifluoromethyl)phenyl]-2H,8H-pyrazolo[3,4-b]indole-5-carboxamide] displayed an IC50 of 100 to 10000 nM. The result for `Cn1cc2c3cc(C(=O)O)ccc3n(CC3CCCCC3)c2n1` [Example 11, 8-(cyclohexylmethyl)-2-methyl-2H,8H-pyrazolo[3,4-b]indole-5-carboxylic acid] reads 100 to 10000 nM; that for `Cn1cc2c3cc(C(=O)NC4COCC4C4CC4)ccc3n(-c3ccc(C(F)(F)F)cc3)c2n1` (stereo not shown) [B133^], 10 to 100 nM; that for `COCc1noc(C(C)NC(=O)c2ccc3c(c2)c2cn(C)nc2n3-c2ccc(C(F)(F)F)cc2)n1` (stereo not shown) [Example B86, N-{1-[3-(methoxymethyl)-1,2,4-oxadiazol-5-yl]ethyl}-2-methyl-8-[4-(trifluoromethyl)phenyl]-2H,8H-pyrazolo[3,4-b]indole-5-carboxamide], 100 to 10000 nM.

For the origin of these results see US20230174538A1, “Tricyclic heterocycles” (Merck Patent GmbH, priority 2020, published 2023).
